Results reported in article PMC3926802 (Molecular pharmaceutics, 2012).
Values joined by “and” are separate entries in the source; they are usually repeats but may differ in a detail not shown here. Identical values can stand only once. Like-named read-outs stand apart in the source and are kept apart here.

Assays:
Buffer = assay type: physicochemical; settings: buffer (pH 7.4), 37°C, 24 hours
[1] = Thermodynamic solubility in water for injection; assay type: physicochemical; settings: for Solubility: water for injection (pH 6.4), 37 °C, 6 hours
[2] = In vitro transport across conjunctiva; settings: for Cumulative % transport compared with GFX, conjunctiva / Fold improvement in permeability compared to GFX, conjunctiva: 200 μM donor; for Cumulative % transport compared with GFX, conjunctiva: no inhibitor; for Fold improvement in permeability compared to GFX, conjunctiva: pH 7.4, 37 °C; for GFX levels formed in the prodrug group, conjunctiva: during in vitro transport study
Log D = settings: n-octanol and PBS buffer (pH 7.4), 37 °C; mean ± SD, n = 3
[3] = In vitro transport across cornea; settings: for Cumulative % transport compared with GFX, cornea / Fold improvement in permeability compared to GFX, cornea: 200 μM donor; for Cumulative % transport compared with GFX, cornea: no inhibitor; for Fold improvement in permeability compared to GFX, cornea: pH 7.4, 37 °C; for GFX levels formed in the prodrug group, cornea: during in vitro transport study
[4] = In vitro transport across SCRPE; settings: for Cumulative % transport compared with GFX, SCRPE / Fold improvement in permeability compared to GFX, SCRPE: 200 μM donor; for Cumulative % transport compared with GFX, SCRPE: no inhibitor; for Fold improvement in permeability compared to GFX, SCRPE: pH 7.4, 37 °C; for GFX levels formed in the prodrug group, SCRPE: during in vitro transport study
[5] = In vivo tissue distribution and bioconversion after topical eye drop; parameters: species or system pigmented rabbits
[6] = cited from earlier work
[7] = cited from earlier work; remark: listed apart in the source
[8] = MPP+ (500 μM), OCT inhibitor, versus no inhibitor
[9] = absence of OCT inhibitor MPP+, printed as compared to GFX
[10] = 1 hour after topical dose of DMAP-GFX
[11] = α-methyl-DL-tryptophan, ATB (0, +) inhibitor, versus no inhibitor
[12] = topical eye drop dosing in rabbits

Structure (SMILES)	GFX formed from prodrug (Buffer) [%]	Solubility ([1]; mean ± SD, n = 3) [µg/mL]	Cumulative % transport compared with GFX, conjunctiva [2]	Fold improvement in permeability compared to GFX, conjunctiva [2]	GFX levels formed in the prodrug group, conjunctiva [2]	Log D (pH 7.4) (Log D)	Cumulative % transport compared with GFX, cornea [3]	Fold improvement in permeability compared to GFX, cornea [3]	GFX levels formed in the prodrug group, cornea [3]	Cumulative % transport compared with GFX, SCRPE [4]	Fold improvement in permeability compared to GFX, SCRPE [4]	GFX levels formed in the prodrug group, SCRPE [4]	Solubility [1] [mM]	other results
COc1c(N2CCNC(C)C2)c(F)cc2c(=O)c(C(=O)NCCCC(=O)O)cn(C3CC3)c12 (racemic) [CP-GFX, (±)-4-(1-cyclopropyl-6-fluoro-8-methoxy-7-(3-methylpiperazin-1-yl)-4-oxo-1,4-dihydroquinoline-3-carboxamido)butanoic acid]	8.63	3010 ± 200												Log D (pH 7.4): 0.11 ± 0.01
COc1c(N2CCNC(C)C2)c(F)cc2c(=O)c(C(=O)NCCCN(C)C)cn(C3CC3)c12 (racemic) [DMAP-GFX, (±)-1-cyclopropyl-N-(3-(dimethylamino)propyl)-6-fluoro-8-methoxy-7-(3-methylpiperazin-1-yl)-4-oxo-1,4-dihydroquinoline-3-carboxamide]	9.51	33260 ± 3000	significantly higher than GFX	1.8 fold and 1.85 fold	below the detection limits	0.05 ± 0.01	significantly higher than GFX	1.4 fold and 1.42 fold	below the detection limits	significantly higher than GFX	1.9 fold and 1.95 fold	below the detection limits	72	Cumulative % transport in the presence of MPP+, conjunctiva [2, 8]: significantly lower; Cumulative % transport in the presence of MPP+, cornea [3, 8]: significantly lower; Permeability in the absence of inhibitor, fold higher, cornea [3, 9]: 1.42 fold; Cumulative % transport in the presence of MPP+, SCRPE [4, 8]: significantly lower; Permeability in the absence of inhibitor, fold higher, SCRPE [4, 9]: 2.06 fold; Formed drug (GFX) levels as % of the total drug, CRPE [5, 10]: 13%; Formed drug (GFX) levels as % of the total drug, conjunctiva [5, 10]: 70%; Formed drug (GFX) levels as % of the total drug, cornea [5, 10]: 8%; Formed drug (GFX) levels as % of the total drug, iris-ciliary body [5, 10]: 24%; Formed drug (GFX) levels as % of the total drug, retina [5, 10]: 55%; Formed drug (GFX) levels as % of the total drug, sclera [5, 10]: 29%; Formed drug (GFX) levels as % of the total drug, vitreous humor [5, 10]: 60%; Drug levels in the remaining tissues, prodrug versus drug group ([5]; 1 hour after topical eye drop, tissues other than vitreous humor and CRPE): not significantly different; Fold higher solubility than CP-GFX ([1]; compared to CP-GFX (6.0 mM)): 12 fold; Fold greater solubility than GFX ([1]; compared to GFX): 12.8 fold
COc1c(N2CCN(C(=O)[C@@H](N)CC(C)C)C(C)C2)c(F)cc2c(=O)c(C(=O)O)cn(C3CC3)c12 (some centres unmarked) [APM-GFX]	8.97	2160 ± 300	did not show any improvement	did not show any improvement	below the detection limits	1.04 ± 0.02	did not show any improvement	did not show any improvement	below the detection limits	did not show any improvement	did not show any improvement	below the detection limits	4	Transport in the presence of α-methyl-DL-tryptophan, conjunctiva [2, 11]: did not show any change; Transport in the presence of α-methyl-DL-tryptophan, cornea [3, 11]: did not show any change; Transport in the presence of α-methyl-DL-tryptophan, SCRPE [4, 11]: did not show any change
COc1c(N2CCNC(C)C2)c(F)cc2c(=O)c(C(=O)O)cn(C3CC3)c12 (centres unmarked) [GFX, Gatifloxacin sesquihydrate]														pKa, carboxylic acid (reported) [6]: 5.94; Tmax in vitreous humor ([7]; single eye drop, pigmented rabbits): 60 min; Tmax, conjunctiva [7, 12]: 4.98 min; Tmax, plasma [7, 12]: 4.98 min; Tmax, tear fluid [7, 12]: 4.98 min; solubility at 6 h ([1]; water for injection, pH 6.4): 2600 µg/mL and 7000 µM
